Laboratory results reported in patent US12409182B2, “Compositions and uses thereof for treatment of idiopathic preterm birth” (UNIVERSITY OF SOUTH FLORIDA, priority 2020, dated 2025).

Key:
FKBP51 [1] = assay: Dexamethasone-induced FKBP51 protein levels in decidual cell monolayers (immunoblot); type: cell-based; conditions: confluent leukocyte-free term decidual cells, 10^-7 M Dex + compound, 24 h
Method: Three endogenous biochemicals (CC #1, CC #2, CC #3), which exist in human blood/tissues were tested as potential inhibitors of FKBP51 expression/action and confirmed that dexamethasone-induced inhibits FKBP51 expression in decidual cell cultures by all three compounds (FIG. 1).

[2] = test system: maternal stress induced pregnant mice; assay: Maternal restraint stress induced preterm birth and fetal growth restriction in wild-type mice; type: in vivo; conditions: for litter size: 0.5 mg/kg daily i.p. GD14 to GD18, maternal stress administered mice; for maternal stress induced fetal growth restriction (pup birth weight) / maternal stress induced preterm birth (gestational length): 0.5 mg/kg daily i.p. GD14 to GD18, restraint stress GD8-GD18, vs placebo
Method: (§1) Wild-type adult female mice were mated with adult males by housing 1:1 for 4 h (9.00 am-1.00 pm). Pregnancy was confirmed by observing vaginal plug and the presence of sperm in vaginal smears, which was designated as gestation day (GD) 0 dpc (10.00 am). Time-mated pregnant mice were randomly assigned into non-stress or restraint stress (ST) groups. Restraint stress was administered in three sessions for 1 h using standard restraint chambers starting on GD 8 through GD 18, while the control group was left undisturbed during pregnancy. Before first restrained stress administration, daily intraperitoneal injection of CC #1 (0.5 mg/kg) or CC #2 (0.5 mg/kg) or placebo (PBS) was administered in ST-mice from GD14 to GD 18. The timing of delivery was monitored. Pups weight, litter size, numbers of live and dead pups were recorded.
as §1, with “Experimental design to test effects of CC #1 and CC #2 administration in maternal stress induced pregnant mice (FIG. 2). Wild-type adult” for “Wild-type adult”, “stress was performed in three” for “stress was administered in three”, “daily intraperitoneal (I.P.) injection of” for “daily intraperitoneal injection of”

FKBP51 [3] = conditions: cultured primary human decidual cells; cited from earlier work
Srd5a1 deficient mice = Srd5a1 deficient mice (27% delivery rate without treatment); cited from earlier work
[4] = test system: Fkbp5+/+ and Fkbp5-/- mice; assay: Maternal dexamethasone or corticosterone injection, gestational length in Fkbp5+/+ or Fkbp5-/- mice; type: in vivo; conditions: corticosterone 10 mg/kg s.c. daily E8 through E18, Fkbp5+/+ or Fkbp5-/- mice
Method: Timing of Labor in Fkbp5^+/+ and Fkbp5^−/− Mice. To examine the effect of deletion of the Fkbp5 gene on birth timing, female Fkbp5^+/+ and Fkbp5^−/− mice (6-8 weeks-old) were mated with an adult Fkbp5^+/+ male (12-16 weeks old) by housing 1:1 for 4 h (9.00 am-1.00 pm). Pregnancy was confirmed by the presence of a vaginal plug or sperm in vaginal smears; gestational day (E) was designated at that time (10.00 am) as 0 dpc of pregnancy. The timing of delivery was monitored from E18 through E21 by observing mice every 4 h upon completion of delivery, and gestational length was calculated. Litter size, numbers of live and dead pups were recorded. Additionally, to determine whether there was a relative contribution of fetal genotype on birth timing, female Fkbp5^−/− mice were also mated with an adult male Fkbp5^−/− mice as described above and timing of labor was recorded.
Maternal Dexamethasone or Corticosterone injection. Dexamethasone-21-phosphate disodium salt (DEX; Sigma-Aldrich, St. Louis, MO) suspended in sterile PBS was administered intraperitoneally at 200 μg/kg. Corticosterone (CORT; Sigma-Aldrich) was dissolved in ethyl alcohol and diluted in PBS before injection and administered subcutaneously at 10 mg/kg. […]

Compound: CCCCC/C=C/C=C1/C(=O)C=C[C@@H]1C/C=C\CCCC(=O)O [CC #1, 15-deoxy-Δ12,14-prostaglandin J2]
- dexamethasone-induced FKBP51 protein levels (FKBP51 [1]): inhibits dexamethasone-induced FKBP51 protein levels
- litter size [2]: did not affect litter size
- maternal stress induced fetal growth restriction (pup birth weight) [2]: prevent maternal stress induced FGR
- maternal stress induced preterm birth (gestational length) [2]: prevent maternal stress induced PTB

Compound: CCCCCCCC/C(=C\CCCCCCCC(=O)O)[N+](=O)[O-] [CC #2, 10-nitro-9E-octadecenoic acid]
- dexamethasone-induced FKBP51 protein levels (FKBP51 [1]): inhibits dexamethasone-induced FKBP51 protein levels
- litter size [2]: did not affect litter size
- maternal stress induced fetal growth restriction (pup birth weight) [2]: prevent maternal stress induced FGR
- maternal stress induced preterm birth (gestational length) [2]: prevent maternal stress induced PTB

Compound: CCCCCCCC/C=C(\CCCCCCCC(=O)O)[N+](=O)[O-] [CC #3, 9-nitro-9E-octadecenoic acid]
- dexamethasone-induced FKBP51 protein levels (FKBP51 [1]): inhibits dexamethasone-induced FKBP51 protein levels

Compound: CC[C@@H]1C[C@H]2[C@@H]3CCC4=CC(=O)CC[C@@H]4[C@H]3CC[C@]2(C)[C@H]1C(=O)CO [Organon 2058]
- FKBP51 levels (FKBP51 [3]): minimal stimulatory effects

Compound: CN(C)c1ccc([C@H]2C[C@]3(C)[C@@H](CC[C@]3(O)CCCO)[C@@H]3CCC4=CC(=O)CCC4=C32)cc1 [ZK98299]
- parturition rate (Srd5a1 deficient mice): 100%

Compound: C[C@]12C[C@H](O)[C@H]3[C@@H](CCC4=CC(=O)CC[C@@]43C)[C@@H]1CC[C@@H]2C(=O)CO [corticosterone, Corticosterone]
- gestational length [4]: did not shorten gestation

Compound: CC(=O)O[C@]1(C(C)=O)CC[C@H]2[C@@H]3C[C@H](C)C4=CC(=O)CC[C@]4(C)[C@H]3CC[C@@]21C [medroxyprogesterone acetate]
- FKBP51 levels (FKBP51 [3]): up-regulated
